This note sets out measurements from US8148531B2 (Chroma Therapeutics Ltd., priority 2005, dated 2012).

Assay [1] concerns U937 cell line. Kind of assay: Cell inhibition assay (SRB cell viability), U937. In kind it is cell-based. The conditions noted are these: Homo sapiens, U-937, IC50 range class, 72 h, read-out: Inhibitor Activity vs U937 cell line. An outline of the steps: (§1)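 Log-phase cells seeded at 1000 cells/well, grown 24 h, then exposed to compounds (20 uM final) for 72 h. Viability read by sulphorhodamine B staining as % inhibition versus DMSO; IC50 from eight-point sigmoidal variable-slope fit.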

Assay [2] has as its target Aurora-B (Homo sapiens, UniProt Q96GD4). Kind of assay: Aurora-B enzyme assay (identical protocol as Aurora-A). In kind it is biochemical. Conditions: IC50 range class; read-out: Inhibitor Activity vs Aurora-B. Put shortly:
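Aurora-B was assayed in the same way as Aurora-A: kinase and γ-33P-ATP were incubated for 1 h at 37 °C in myelin basic protein-coated scintillation plates. After washing, bound radioactivity was counted. IC50 values came from a variable-slope sigmoidal fit of % activity against log compound concentration.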

The target in assay [3] is T1, Aurora-A (Homo sapiens, UniProt O14965).
T1 sequence (O14965 1-403): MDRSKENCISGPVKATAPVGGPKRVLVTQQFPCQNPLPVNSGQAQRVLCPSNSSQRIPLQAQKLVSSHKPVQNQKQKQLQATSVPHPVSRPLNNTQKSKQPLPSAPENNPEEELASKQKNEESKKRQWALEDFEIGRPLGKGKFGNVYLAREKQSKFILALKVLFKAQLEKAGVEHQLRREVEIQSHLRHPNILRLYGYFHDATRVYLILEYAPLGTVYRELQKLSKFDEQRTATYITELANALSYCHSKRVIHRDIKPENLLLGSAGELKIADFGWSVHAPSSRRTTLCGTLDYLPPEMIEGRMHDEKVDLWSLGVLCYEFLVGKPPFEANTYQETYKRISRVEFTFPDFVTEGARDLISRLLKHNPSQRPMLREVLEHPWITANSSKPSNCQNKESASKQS
Kind of assay: Aurora-A enzyme assay (MBP-coated Flashplate, γ-33P-ATP). In kind it is biochemical. The conditions noted are these: IC50 range class; read-out: Inhibitor Activity vs Aurora-A. As for the experimental part:
The ability of compounds to inhibit Aurora-A activity was measured using a simple microplate assay for Aurora-A activity, also suitable for high-throughput screening. In brief, γ-^33P-ATP and Aurora-A were incubated in a myelin basic protein (MBP)-coated Flashplate® to generate a scintillation signal. The plates were formatted to contain the inhibitor, controls, positive control (staurosporin) and blanks. After incubation at 37° C. for 1 hour and a subsequent wash procedure, the plates were read on a TopCount-NXT™.
The 384-well basic Flashplate® and the γ-^33P-ATP were obtained from PerkinElmer Life Sciences, Boston, Mass.
IC50 values were determined by non-linear regression analysis, after fitting the data point results to the equation for sigmoidal dose response with variable slope (% activity against log concentration of compound), using Graphpad Prism software.
Full experimental procedure for this assay can be found within the following reference: Sun, C Journal of Biomolecular Screening 9(5), 2004, 391.

Assay [4] concerns HUT cell line. Kind of assay: Cell inhibition assay (SRB cell viability), HUT. In kind it is cell-based. The conditions noted are these: IC50 range class, 72 h, read-out: Inhibitor Activity vs HUT cell line. Put shortly: as §1
The test system of assay [5] is HCT 116 cell line. Kind of assay: Cell inhibition assay (SRB cell viability), HCT 116. In kind it is cell-based. The conditions noted are these: Homo sapiens, IC50 range class, 72 h, read-out: Inhibitor Activity vs HCT 116 cell line. An outline of the steps: as §1

pIC50: −log10 of the molar value.

Chain of Aurora-B (Q96GD4 whole entry): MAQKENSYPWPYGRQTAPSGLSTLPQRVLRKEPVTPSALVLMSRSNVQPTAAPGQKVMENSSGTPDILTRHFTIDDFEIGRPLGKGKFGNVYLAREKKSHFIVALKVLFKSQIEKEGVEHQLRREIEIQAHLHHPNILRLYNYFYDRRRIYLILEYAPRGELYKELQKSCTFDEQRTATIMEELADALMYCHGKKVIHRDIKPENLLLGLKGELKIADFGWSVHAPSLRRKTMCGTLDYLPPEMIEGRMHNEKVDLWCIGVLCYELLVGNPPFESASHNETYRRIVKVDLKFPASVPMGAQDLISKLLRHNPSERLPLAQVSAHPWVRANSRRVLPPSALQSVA

`COc1cc2c(Oc3ccc(NC(=O)Nc4ccc(C(F)(F)F)cc4)cc3)ccnc2cc1OCC[C@H](N)C(=O)OC1CCCC1` [Example 93, (S)-2-Amino-4-(6-methoxy-4-{4-[3-(4-trifluoromethyl-phenyl)-ureido]-phenoxy}-quinolin-7-yloxy)-butyric acid cyclopentyl ester]: the pIC50 in assay [1] is above 6.00; in assay [2], 5.30 to 5.70; in assay [3], above 5.70; in assay [4], above 6.00; in assay [5], above 6.00.
For the molecule `COc1cc2c(Oc3ccc(NC(=O)c4ccccc4)cc3)ccnc2cc1OCCC[C@@H](N)C(=O)OC1CCCC1` [Example 115, (R)-2-Amino-5-[4-(4-benzoylamino-phenoxy)-6-methoxy-quinolin-7-yloxy]-pentanoic acid cyclopentyl ester], the pIC50 is above 6.00 in assay [1]; 5.30 to 5.70 in assay [2]; 5.30 to 5.70 in assay [3]; above 6.00 in assay [4]; above 6.00 in assay [5].
For `COc1cc2c(Oc3ccc(NC(=O)c4ccccc4)cc3)c(Br)cnc2cc1OCC[C@H](N)C(=O)OC1CCCC1` [Example 32], the pIC50 is 5.30 to 6.00 in assay [1]; below 5.30 in assay [2]; below 5.30 in assay [3]; 5.30 to 6.00 in assay [4]; below 5.30 in assay [5].
`COc1cc2c(Oc3ccc(NC(=O)c4cccc(F)c4)cc3)ccnc2cc1OCC[C@H](N)C(=O)OC1CCCC1` [Example 55, (S)-2-Amino-4-{4-[4-(3-fluoro-benzoylamino)-phenoxy]-6-methoxy-quinolin-7-yloxy}-butyric acid cyclopentyl ester]: the pIC50 was above 6.00 in assay [1]; 5.30 to 5.70 in assay [2]; 5.30 to 5.70 in assay [3]; above 6.00 in assay [4]; above 6.00 in assay [5].
For the molecule `COc1cc2c(Oc3ccc(NC(=O)c4ccccc4)cc3)ccnc2cc1OCC[C@H](NC(=O)OC(C)(C)C)C(=O)OC1CCCC1` [Example 1, (S)-4-[4-(4-Benzoylamino-phenoxy)-6-methoxy-quinolin-7-yloxy]-2-tert-butoxycarbonylamino-butyric acid cyclopentyl ester], the pIC50 in assay [1] is above 6.00; in assay [2], below 5.30; in assay [3], 5.30 to 5.70; in assay [4], 5.30 to 6.00; in assay [5], above 6.00.
In the case of `COc1cc2c(Nc3ccc(NC(=O)c4ccccc4)cc3)ccnc2cc1OCC[C@H](N)C(=O)OC1CCCC1` [Example 15, (S)-2-Amino-4-[4-(4-benzoylamino-phenylamino)-6-methoxy-quinolin-7-yloxy]-butyric acid cyclopentyl ester], the pIC50 in assay [1] is 5.30 to 6.00; in assay [2], below 5.30; in assay [3] it was 5.30 to 5.70; in assay [4] it was 5.30 to 6.00; in assay [5] it was 5.30 to 6.00.
Take `COc1cc2c(Oc3ccc(NC(=O)Nc4ccc(C(F)(F)F)cc4)cc3)ccnc2cc1OCCC[C@@H](N)C(=O)OC1CCCC1` [Example 119, (R)-2-Amino-5-(6-methoxy-4-{4-[3-(4-trifluoromethyl-phenyl)-ureido]-phenoxy}-quinolin-7-yloxy)-pentanoic acid cyclopentyl ester]: the pIC50 in assay [1] is above 6.00; in assay [2], above 5.70; in assay [3], above 5.70; in assay [4], above 6.00; in assay [5] it was above 6.00.
Turning to `COc1cc2c(Oc3ccc(NC(=O)c4ccccc4)cc3)ccnc2cc1OCCC[C@H](N)C(=O)OC1CCCC1` [Example 109, (S)-2-Amino-5-[4-(4-benzoylamino-phenoxy)-6-methoxy-quinolin-7-yloxy]-pentanoic acid cyclopentyl ester], the pIC50 in assay [1] was above 6.00; in assay [2], 5.30 to 5.70; in assay [3], 5.30 to 5.70; in assay [4], above 6.00; in assay [5] it was above 6.00.
Consider `COc1cc2c(Oc3ccc(NC(=O)c4ccccc4)cc3)ccnc2cc1OCC[C@H](N)C(=O)OC(C)(C)C` [Example 50, (S)-2-Amino-4-[4-(4-benzoylamino-phenoxy)-6-methoxy-quinolin-7-yloxy]-butyric acid tert-butyl ester], for which the pIC50 in assay [1] was above 6.00; in assay [2], 5.30 to 5.70; in assay [3], 5.30 to 5.70; in assay [4] it was above 6.00; in assay [5], above 6.00.
On to `COc1cc2c(Oc3ccc(NC(=O)Nc4ccccc4)cc3)ccnc2cc1OCC[C@H](N)C(=O)OC1CCCC1` [Example 95, (S)-2-Amino-4-{6-methoxy-4-[4-(3-phenyl-ureido)-phenoxy]-quinolin-7-yloxy}-butyric acid cyclopentyl ester], for which the pIC50 in assay [1] was above 6.00; in assay [2] it was 5.30 to 5.70; in assay [3] it was 5.30 to 5.70; in assay [4], above 6.00; in assay [5], above 6.00.
Turning to `COc1cc2c(Sc3ccc(NC(=O)c4ccccc4)cc3)ccnc2cc1OCC[C@H](N)C(=O)OC1CCCC1` [Example 18, (S)-2-Amino-4-[4-(4-benzoylamino-phenylsulfanyl)-6-methoxy-quinolin-7-yloxy]-butyric acid cyclopentyl ester], the pIC50 in assay [1] is above 6.00; in assay [2] it was below 5.30; in assay [3] it was above 5.70; in assay [4], above 6.00; in assay [5], above 6.00.
As to `COc1cc2c(Oc3ccc(NC(=O)c4ccccc4)cc3)ccnc2cc1OCC[C@H](N)C(=O)OC1CCCC1` [Example 2, (S)-2-Amino-4-[4-(4-benzoylamino-phenoxy)-6-methoxy-quinolin-7-yloxy]-butyric acid cyclopentyl ester], the pIC50 in assay [1] was above 6.00; in assay [2], 5.30 to 5.70; in assay [3], 5.30 to 5.70; in assay [4], above 6.00; in assay [5], above 6.00.
For `COc1cc2c(Oc3ccc(NC(=O)Nc4ccc(C(F)(F)F)cc4)cc3F)ccnc2cc1OCC[C@H](N)C(=O)OC1CCCC1` [Example 125, (S)-2-Amino-4-(4-{2-fluoro-4-[3-(4-trifluoromethyl-phenyl)-ureido]-phenoxy}-6-methoxy-quinolin-7-yloxy)-butyric acid cyclopentyl ester], the pIC50 was above 6.00 in assay [1]; 5.30 to 5.70 in assay [2]; 5.30 to 5.70 in assay [3]; above 6.00 in assay [4]; above 6.00 in assay [5].
With `COc1cc2c(Oc3ccc(NC(=O)c4ccc(F)cc4)cc3)ccnc2cc1OCC[C@H](N)C(=O)O` [Example 64, (S)-2-Amino-4-{4-[4-(4-fluoro-benzoylamino)-phenoxy]-6-methoxy-quinolin-7-yloxy}-butyric acid], the results for the pIC50 in assay [2] and in assay [3] were above 5.70 and 5.30 to 5.70, respectively.
In the same order, the values of `COc1cc2c(Oc3ccc(NC(=O)c4ccc(Cl)cc4)cc3)ccnc2cc1OCC[C@H](N)C(=O)O` [Example 67, (S)-2-Amino-4-{4-[4-(4-chloro-benzoylamino)-phenoxy]-6-methoxy-quinolin-7-yloxy}-butyric acid] are above 5.70 and above 5.70.
In the same order, the values of `COc1cc2c(Oc3ccc(NC(=O)c4cc(C(F)(F)F)ccc4F)cc3)ccnc2cc1OCC[C@H](N)C(=O)O` [Example 69, (S)-2-Amino-4-{4-[4-(2-fluoro-5-trifluoromethyl-benzoylamino)-phenoxy]-6-methoxy-quinolin-7-yloxy}-butyric acid] are above 5.70 and 5.30 to 5.70.
As for `COc1cc2c(Sc3ccc(NC(=O)C4CC4)cc3)ccnc2cc1OCC[C@H](N)C(=O)O` [Example 21, (S)-2-Amino-4-{4-[4-(cyclopropanecarbonyl-amino)-phenylsulfanyl]-6-methoxy-quinolin-7-yloxy}-butyric acid], the pIC50 in assay [2] and in assay [3] was 5.30 to 5.70 each time.
On to `COc1cc2c(Oc3ccc(NC(=O)Nc4ccc(C(F)(F)F)cc4)cc3)ccnc2cc1OCCC[C@H](N)C(=O)O` [Example 114, (S)-2-Amino-5-(6-methoxy-4-{4-[3-(4-trifluoromethyl-phenyl)-ureido]-phenoxy}-quinolin-7-yloxy)-pentanoic acid], for which the pIC50 in assay [2] and in assay [3] was above 5.70 in each case.
